Data published in US7880007B2, “Bicyclic substituted phenyl piperidine modulators of muscarinic receptors” (Vertex Pharmaceuticals Incorporated, priority 2004, dated 2011).

Tests used:
Format in all cases: cell-based
M1 muscarinic receptor = molecular target: T1, M1 muscarinic receptor (Homo sapiens, UniProt P11229); experiment: Functional mobilization of intracellular calcium (FLIPR), M1-CHO cells; details: for M1 Activity: M1-CHO cells, calcium mobilization (FLIPR)
T1 construct: expressed in transfected cells; host or cells: CHO (M1-CHO)
T1 sequence (P11229 1-460): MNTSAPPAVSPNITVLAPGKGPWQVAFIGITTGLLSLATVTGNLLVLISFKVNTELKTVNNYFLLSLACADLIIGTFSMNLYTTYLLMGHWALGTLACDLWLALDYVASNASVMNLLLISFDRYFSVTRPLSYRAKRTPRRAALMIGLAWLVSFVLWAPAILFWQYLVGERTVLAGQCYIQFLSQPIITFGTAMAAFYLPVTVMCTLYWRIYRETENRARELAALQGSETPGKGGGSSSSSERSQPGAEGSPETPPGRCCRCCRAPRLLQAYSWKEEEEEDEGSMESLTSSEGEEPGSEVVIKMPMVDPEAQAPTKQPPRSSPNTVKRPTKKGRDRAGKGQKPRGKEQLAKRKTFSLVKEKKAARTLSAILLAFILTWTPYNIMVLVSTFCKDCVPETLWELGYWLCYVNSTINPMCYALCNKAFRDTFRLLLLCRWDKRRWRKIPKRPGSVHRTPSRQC
In short: (§1)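 FLIPR fluorescence (ex 488, em 540 nm) recorded 60 sec after compound addition to dye-loaded CHO cells. Agonist mode: compound alone. Antagonist mode: 15 min compound pre-incubation, then carbachol at EC80, or co-application. Efficacy expressed as % of maximal carbachol response.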

M2 muscarinic receptor = molecular target: T2, M2 muscarinic receptor (Homo sapiens, UniProt P08172); experiment: Functional mobilization of intracellular calcium (FLIPR), M2-CHO cells; details: for M2 Activity: M2-CHO cells, calcium mobilization (FLIPR)
T2 construct: expressed in transfected cells; host or cells: CHO (M2-CHO)
T2 sequence (P08172 1-466): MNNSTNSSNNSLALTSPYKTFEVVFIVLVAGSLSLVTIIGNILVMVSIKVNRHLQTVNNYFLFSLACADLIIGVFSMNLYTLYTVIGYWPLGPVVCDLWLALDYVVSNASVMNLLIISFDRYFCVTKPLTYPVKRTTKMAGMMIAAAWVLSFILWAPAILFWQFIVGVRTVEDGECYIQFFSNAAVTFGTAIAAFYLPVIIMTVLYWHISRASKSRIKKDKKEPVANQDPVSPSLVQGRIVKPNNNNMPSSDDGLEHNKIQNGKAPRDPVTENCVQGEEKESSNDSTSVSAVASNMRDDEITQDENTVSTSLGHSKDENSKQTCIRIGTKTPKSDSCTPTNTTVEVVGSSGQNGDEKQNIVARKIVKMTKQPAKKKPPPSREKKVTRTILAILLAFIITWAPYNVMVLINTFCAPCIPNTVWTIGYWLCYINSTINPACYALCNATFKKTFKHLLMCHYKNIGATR
In short: as §1

M3 muscarinic receptor = molecular target: T3, M3 muscarinic receptor (Homo sapiens, UniProt P20309); experiment: Functional mobilization of intracellular calcium (FLIPR), M3-CHO cells; details: for M3 Activity: M3-CHO cells, calcium mobilization (FLIPR)
T3 construct: expressed in transfected cells; host or cells: CHO (M3-CHO)
In short: as §1

M4 muscarinic receptor = molecular target: T4, M4 muscarinic receptor (Homo sapiens, UniProt P08173); experiment: Functional mobilization of intracellular calcium (FLIPR), M4-CHO cells; details: for M4 Activity: M4-CHO cells, calcium mobilization (FLIPR)
T4 construct: expressed in transfected cells; host or cells: CHO (M4-CHO)
T4 sequence (P08173 1-479): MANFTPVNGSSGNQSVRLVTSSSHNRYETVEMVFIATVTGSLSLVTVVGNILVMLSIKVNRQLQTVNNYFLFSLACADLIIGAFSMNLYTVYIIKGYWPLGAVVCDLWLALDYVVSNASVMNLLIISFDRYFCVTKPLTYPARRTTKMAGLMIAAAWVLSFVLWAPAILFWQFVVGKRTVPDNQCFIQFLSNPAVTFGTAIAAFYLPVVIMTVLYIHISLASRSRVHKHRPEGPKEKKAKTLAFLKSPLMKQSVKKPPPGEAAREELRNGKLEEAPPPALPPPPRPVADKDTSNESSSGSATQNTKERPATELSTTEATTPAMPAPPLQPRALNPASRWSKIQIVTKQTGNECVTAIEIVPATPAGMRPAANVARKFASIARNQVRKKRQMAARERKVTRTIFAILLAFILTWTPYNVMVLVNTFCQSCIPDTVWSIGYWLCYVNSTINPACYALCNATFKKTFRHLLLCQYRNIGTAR
In short: as §1

[1] = 100% efficacy is the maximum response obtained with the Carbachol control
[2] = 100% efficacy = maximum response obtained with the Carbachol control

T3 sequence (P20309 whole entry): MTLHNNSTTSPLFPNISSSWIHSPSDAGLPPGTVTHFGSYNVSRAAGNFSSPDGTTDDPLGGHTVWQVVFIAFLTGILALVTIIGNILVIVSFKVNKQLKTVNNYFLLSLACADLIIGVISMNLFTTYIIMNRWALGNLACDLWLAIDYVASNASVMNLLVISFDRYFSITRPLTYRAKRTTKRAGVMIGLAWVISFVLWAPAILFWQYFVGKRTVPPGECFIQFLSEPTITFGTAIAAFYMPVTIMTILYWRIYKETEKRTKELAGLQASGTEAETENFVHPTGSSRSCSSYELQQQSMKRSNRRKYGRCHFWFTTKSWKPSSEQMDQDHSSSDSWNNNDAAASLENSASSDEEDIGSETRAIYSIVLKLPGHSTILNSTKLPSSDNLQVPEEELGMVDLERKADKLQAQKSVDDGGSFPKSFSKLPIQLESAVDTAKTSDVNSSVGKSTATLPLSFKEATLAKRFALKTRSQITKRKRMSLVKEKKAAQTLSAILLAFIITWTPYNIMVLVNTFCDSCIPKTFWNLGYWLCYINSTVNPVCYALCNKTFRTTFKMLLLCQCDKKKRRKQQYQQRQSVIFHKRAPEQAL

Row | Compound | Emax (M1 muscarinic receptor; [1]) | Emax (M2 muscarinic receptor; [1]) | Emax (M3 muscarinic receptor; [1]) | Emax (M4 muscarinic receptor; [1]) | Emax (M1 muscarinic receptor; [2]) | Emax (M2 muscarinic receptor; [2]) | Emax (M3 muscarinic receptor; [2]) | Emax (M4 muscarinic receptor; [2]) | M1 Efficacy (M1 muscarinic receptor; [1]) | M1 Activity (M1 muscarinic receptor) | M2 Efficacy (M2 muscarinic receptor; [1]) | M2 Activity (M2 muscarinic receptor) | M3 Efficacy (M3 muscarinic receptor; [1]) | M3 Activity (M3 muscarinic receptor) | M4 Efficacy (M4 muscarinic receptor; [1]) | M4 Activity (M4 muscarinic receptor)
1 | COc1ccc(Cl)cc1C1CCN(C2CCC(=NOCc3ccccc3)CC2)CC1 (centres unmarked) [Compound 396] |  |  |  |  |  |  |  |  | ++ (efficacy was calculated to be from 100% to 25%) | + (activity was measured to be greater than 5.0 μM) | + (efficacy was calculated to be less than 25%) | + (activity was measured to be greater than 5.0 μM) | + (efficacy was calculated to be less than 25%) | + (activity was measured to be greater than 5.0 μM) | ++ (efficacy was calculated to be from 100% to 25%) | +++ (activity was measured to be less than 1.0 μM)
2 | CCOC(=O)N1C2CCC1CC(N1CCC(c3cc(Cl)ccc3OC)CC1)C2 (centres unmarked) [Compound 406] | 25 to 100% | 25 to 100% | 25 to 100% | 25 to 100% |  |  |  |  |  | +++ (activity was measured to be less than 1.0 μM) |  | +++ (activity was measured to be less than 1.0 μM) |  | + (activity was measured to be greater than 5.0 μM) |  | +++ (activity was measured to be less than 1.0 μM)
3 | CCOC(=O)N1CCC(N2CCC(F)(c3cc(F)ccc3OC)CC2)CC1 [Compound 262] |  |  |  |  | 25 to 100% | < 25% | < 25% | 25 to 100% |  | +++ (activity was measured to be less than 1.0 μM) |  | + (activity was measured to be greater than 5.0 μM) |  | + (activity was measured to be greater than 5.0 μM) |  | +++ (activity was measured to be less than 1.0 μM)
4 | Cc1ccccc1C1(O)CCN(CC2CC3C=CC2C3)CC1 (centres unmarked) [Compound 171] |  |  |  |  | 25 to 100% | < 25% |  | 25 to 100% |  | ++ (activity was measured to be from 1.0 μM to 5.0 μM) |  | + (activity was measured to be greater than 5.0 μM) |  | + (activity was measured to be greater than 5.0 μM) |  | +++ (activity was measured to be less than 1.0 μM)
5 | CCOc1ccccc1C1CCN([C@H]2C[C@H]3CC[C@H]2C3)CC1 [Compound 68] |  |  |  |  | 25 to 100% | < 25% | < 25% | 25 to 100% |  | ++ (activity was measured to be from 1.0 μM to 5.0 μM) |  | + (activity was measured to be greater than 5.0 μM) |  | + (activity was measured to be greater than 5.0 μM) |  | +++ (activity was measured to be less than 1.0 μM)
6 | COc1ccc(F)cc1C1CCN(C[C@H]2C[C@H]3C=C[C@H]2C3)CC1 [Compound 18] |  |  |  |  | 25 to 100% | 25 to 100% | < 25% | 25 to 100% |  | +++ (activity was measured to be less than 1.0 μM) |  | +++ (activity was measured to be less than 1.0 μM) |  | + (activity was measured to be greater than 5.0 μM) |  | +++ (activity was measured to be less than 1.0 μM)
7 | COc1ccccc1[C@H]1CCN([C@@H]2C[C@H]3CC[C@H]2C3)C[C@@H]1O [Compound 117] |  |  |  |  | < 25% | < 25% | < 25% | 25 to 100% |  | + (activity was measured to be greater than 5.0 μM) |  | + (activity was measured to be greater than 5.0 μM) |  | + (activity was measured to be greater than 5.0 μM) |  | + (activity was measured to be greater than 5.0 μM)
8 | COc1ccc(Cl)cc1C1(F)CCN([C@@H]2C[C@H]3CC[C@H]2C3)CC1 [Compound 309] |  |  |  |  | 25 to 100% | 25 to 100% | < 25% | 25 to 100% |  | + (activity was measured to be greater than 5.0 μM) |  | ++ (activity was measured to be from 1.0 μM to 5.0 μM) |  | + (activity was measured to be greater than 5.0 μM) |  | ++ (activity was measured to be from 1.0 μM to 5.0 μM)

Second part, led by results:

Row | Emax (M1 muscarinic receptor; [1]) | Emax (M2 muscarinic receptor; [1]) | Emax (M3 muscarinic receptor; [1]) | Emax (M4 muscarinic receptor; [1]) | Emax (M1 muscarinic receptor; [2]) | Emax (M2 muscarinic receptor; [2]) | Emax (M3 muscarinic receptor; [2]) | Emax (M4 muscarinic receptor; [2]) | Compound | M1 Efficacy (M1 muscarinic receptor; [1]) | M1 Activity (M1 muscarinic receptor) | M2 Efficacy (M2 muscarinic receptor; [1]) | M2 Activity (M2 muscarinic receptor) | M3 Efficacy (M3 muscarinic receptor; [1]) | M3 Activity (M3 muscarinic receptor) | M4 Efficacy (M4 muscarinic receptor; [1]) | M4 Activity (M4 muscarinic receptor)
9 |  |  |  |  | < 25% | < 25% | < 25% | 25 to 100% | COc1ccc(Cl)cc1C1CCN(C2CC[S+]([O-])CC2)CC1 (centres unmarked) [Compound 248] |  | + (activity was measured to be greater than 5.0 μM) |  | + (activity was measured to be greater than 5.0 μM) |  | + (activity was measured to be greater than 5.0 μM) |  | + (activity was measured to be greater than 5.0 μM)
10 |  |  |  |  | < 25% | < 25% | < 25% | 25 to 100% | COc1ccc(-c2ccc(CC#N)cc2)cc1C1CCN(C2CC3CCC(C3)C2)CC1 (centres unmarked) [Compound 173] |  | + (activity was measured to be greater than 5.0 μM) |  | + (activity was measured to be greater than 5.0 μM) |  | + (activity was measured to be greater than 5.0 μM) |  | + (activity was measured to be greater than 5.0 μM)
11 | < 25% | < 25% | < 25% | 25 to 100% |  |  |  |  | COc1ccc(-c2ccc(C)cc2)cc1C1CCN([C@H]2C[C@H]3CC[C@H]2C3)CC1 [Compound 423] |  | + (activity was measured to be greater than 5.0 μM) |  | + (activity was measured to be greater than 5.0 μM) |  | + (activity was measured to be greater than 5.0 μM) |  | + (activity was measured to be greater than 5.0 μM)
12 | < 25% | < 25% | < 25% | 25 to 100% |  |  |  |  | COc1ccc(-c2ccc(CC#N)cc2)cc1C1CCN(C2CCCCC2)CC1 [Compound 399] |  | + (activity was measured to be greater than 5.0 μM) |  | + (activity was measured to be greater than 5.0 μM) |  | + (activity was measured to be greater than 5.0 μM) |  | ++ (activity was measured to be from 1.0 μM to 5.0 μM)
